From US20260102507A1, “CAMPTOTHECIN DERIVATIVE FOR TREATING OR PREVENTING CANCER AND ANTIBODY-DRUG CONJUGATE THEREOF” (CHENGDU BRILLIANT PHARMACEUTICAL CO., LTD., priority 2023, published 2026)

Legend:
Format in all cases: cell-based
[1] = tested on: human colon cancer cell line HCT116; assay: Cytotoxicity assay of camptothecin derivative toxins (Example A); settings: 3 days incubation, Cell Titer Turbo 2.0 luminescent cell viability
Experimental: (§1) Tumor cells (human ovarian cancer cell line SK-OV-3; human colon cancer cell line HCT116; human lung adenocarcinoma cell line A549) in logarithmic growth phase were digested and adjusted to a density of approximately 3×10^4 cells/mL. The cells were plated on a white-walled 96-well plate at approximately 100 μL/well. The camptothecin derivative toxins of the Examples of the present application were serially diluted with the corresponding cell culture medium, and then mixed with the cells for incubation at 37° C. in a 5% CO2 incubator for 3 days. The growth inhibitory effect of the camptothecin derivative toxins on tumor cells was assessed by the Cell Titer Turbo 2.0 Luminescent Cell Viability Assay (Damas life, RA-GL11). Relative light unit (RLU) values were read from the cell culture plate using a microplate reader. Experimental data were analyzed using GraphPad Prism 8.0 software to calculate IC50 values. The above experiment was repeated using the following compounds as positive controls: […]

[2] = tested on: human lung adenocarcinoma cell line A549; assay: as above; settings: 3 days incubation, Cell Titer Turbo 2.0 luminescent cell viability
Experimental: as §1

[3] = tested on: human ovarian cancer cell line SK-OV-3; assay: as above; settings: for IC50: 3 days incubation, Cell Titer Turbo 2.0 luminescent cell viability; for tumor cell killing activity: in words, overall statement on Table 2 tumor cells, compared with SN-38 and Dxd
Experimental: as §1

[4] = tested on: human lung adenocarcinoma cell line NCI-H441; assay: Cytotoxicity assay of camptothecin derivative toxins (Example A'); settings: Homo sapiens, NCI-H441, 72 h; Example A'; 3 days incubation; read-out: IC50 (nM) NCI-H441
Experimental: (§2) The camptothecin derivatives of the Examples of the present application were serially diluted with DMSO and the corresponding cell culture medium, and were added into a white-walled 96-well plate. Tumor cells (human ovarian cancer cell line SK-OV-3; human colon cancer cell line HCT116; human lung adenocarcinoma cell line A549; human lung adenocarcinoma cell line NCI-H441; human oral epidermoid carcinoma cell line KB) in logarithmic growth phase were digested and adjusted to a density of approximately 3.33×10^4 cells/mL. The cells were plated at 90 µL/well on the white-walled 96-well plate that was pre-loaded with the samples, followed by incubation at 37° C. in a 5% CO2 incubator for 3 days. The growth inhibitory effect of the small molecule compounds on tumor cells was evaluated by the Cell Titer Turbo 2.0 Luminescent Cell Viability Assay (Damas life, RA-GL11). Relative light unit (RLU) values were read from the cell culture plates using a microplate reader. Experimental data were analyzed with GraphPad Prism 8.0 software to calculate IC50 values.

[5] = tested on: human ovarian cancer cell line SK-OV-3; assay: as above; settings: Homo sapiens, SK-OV-3, 72 h; Example A'; 3 days incubation; read-out: IC50 (nM) SK-OV-3
Experimental: as §2

Row | Compound | IC50 ([1]; Homo sapiens, HCT-116, 72 h) | IC50 ([2]; Homo sapiens, A549, 72 h) | IC50 ([3]; Homo sapiens, SK-OV-3, 72 h) | tumor cell killing activity [3] | further results
1 | CC[C@@]1(O)C(=O)OCc2c1cc1n(c2=O)Cc2c-1nc1cc(F)c(C)cc1c2N [STI-F-03C-1, (S)-4-ethyl-4-hydroxy-8-fluoro-9-methyl-11-amino-1,12-dihydro-14H-pyrano[3′,4′:6,7]indolizino[1,2-b]quinoline-3,14(4H)-dione] | 38.2 nM | 1080 nM | 19.9 nM | comparable to that of SN-38 and Dxd | 
2 | CCCCCNc1c2c(nc3cc(F)c(C)cc13)-c1cc3c(c(=O)n1C2)COC(=O)[C@]3(O)CC [STI-F-13] |  |  |  | significantly superior to that of SN-38 and Dxd | 
3 | CC[C@@]1(O)C(=O)OCc2c1cc1n(c2=O)Cc2c-1nc1cc3c(cc1c2CCCCO)OCO3 [STI-E, (S)-7-ethyl-7-hydroxy-14-(4-hydroxybutyl)-10,13-dihydro-11H-[1,3]dioxolo[4,5-g]pyrano[3′,4′:6,7]indolizino[1,2-b]quinoline-8,11(7H)-dione] | 1740 nM | 1060 nM | 403 nM |  | 
4 | CC[C@@]1(O)C(=O)OCc2c1cc1n(c2=O)Cc2cc3cc(C)c(F)cc3nc2-1 [STI-F-8, (S)-4-ethyl-4-hydroxy-8-fluoro-9-methyl-1,12-dihydro-14H-pyrano[3′,4′:6,7]indolizino[1,2-b]quinoline-3,14(4H)-dione] | 26.6 nM | 52.8 nM | 12.4 nM | comparable to that of SN-38 and Dxd | 
5 | CCCCCc1c2c(nc3cc(F)c([N+](=O)[O-])cc13)-c1cc3c(c(=O)n1C2)COC(=O)[C@]3(O)CC [STI-G03, (S)-4-ethyl-4-hydroxy-8-fluoro-9-nitro-11-pentyl-1,12-dihydro-14H-pyrano[3′,4′:6,7]indolizino[1,2-b]quinoline-3,14(4H)-dione] | 268 nM | 322 nM | 137 nM |  | 
6 | CC[C@@]1(O)C(=O)OCc2c1cc1n(c2=O)Cc2cc3cc4c(cc3nc2-1)OCO4 [STI-E-05, (S)-7-ethyl-7-hydroxy-10,13-dihydro-11H-[1,3]dioxolo[4,5-g]pyrano[3′,4′:6,7]indolizino[1,2-b]quinoline-8,11(7H)-dione] | 32.9 nM | 70.3 nM | 12.7 nM | comparable to that of SN-38 and Dxd | 
7 | CC[C@@]1(O)C(=O)OCc2c1cc1n(c2=O)Cc2c-1nc1cc(F)c(C)cc1c2NCCCCO [STI-F6, (S)-4-ethyl-8-fluoro-4-hydroxy-9-methyl-11-((4-hydroxybutyl)amino)-1,12-dihydro-14H-pyrano[3′,4′:6,7]indolizino[1,2-b]quinoline-3,14(4H)-dione] |  |  | 2.65 nM | significantly superior to that of SN-38 and Dxd | 
8 | CC[C@@]1(O)C(=O)OCc2c1cc1n(c2=O)Cc2c-1nc1cc(F)c(C)cc1c2C(=O)O [STI-F-01, (S)-4-ethyl-8-fluoro-4-hydroxy-9-methyl-3,14-dioxo-3,4,12,14-tetrahydro-1H-pyrano[3′,4′:6,7]indolizino[1,2-b]quinoline-11-carboxylic acid] | 322 nM | 1050 nM | 131 nM |  | 
9 | CC[C@@]1(O)C(=O)OCc2c1cc1n(c2=O)Cc2c-1nc1cc(F)c(C)cc1c2NC(=O)CO [STI-F2, (S)—N-(4-ethyl-4-hydroxy-8-fluoro-9-methyl-3,14-dioxo-3,4,12,14-tetrahydro-1H-pyrano[3′,4′:6,7]indolizino[1,2-b]quinolin-11-yl)-2-hydroxyacetamide] | 945 nM | 2370 nM | 317 nM |  | 
10 | CC[C@@]1(O)C(=O)OCc2c1cc1n(c2=O)Cc2c-1nc1cc(F)c(C)cc1c2CNCC(C)(C)C [STI-A, (S)-4-ethyl-4-hydroxy-8-fluoro-9-methyl-11-((neopentylamino)methyl)-1,12-dihydro-14H-pyrano[3′,4′:6,7]indolizino[1,2-b]quinoline-3,14(4H)-dione] | 39.9 nM | 115 nM | 29.3 nM | comparable to that of SN-38 and Dxd | 
11 | CCCCCNc1c2c(nc3cc(F)c(C)cc13)-c1cc3c(c(=O)n1C2)COC(=O)[C@]3(O)CC [STI-F13, (S)-4-ethyl-8-fluoro-4-hydroxy-9-methyl-11-(pentylamino)-1,12-dihydro-14H-pyrano[3′,4′:6,7]indolizino[1,2-b]quinoline-3,14(4H)-dione] |  |  | 2.37 nM |  | 
12 | CC[C@@]1(O)C(=O)OCc2c1cc1n(c2=O)Cc2c-1nc1cc(F)c(C)c3c1c2[C@@H](NC(=O)CO)CC3 [DXD, Dxd, reference compound] |  |  |  |  | IC50 [1]: 49.3 nM; IC50 [2]: 413 nM; IC50 [3]: 41.4 nM
13 | CCCSCc1c2c(nc3cc(F)c(N)cc13)-c1cc3c(c(=O)n1C2)COC(=O)[C@]3(O)CC [STI-G2, (S)-9-amino-4-ethyl-8-fluoro-4-hydroxy-11-((propylthio)methyl)-1,12-dihydro-14H-pyrano[3′,4′:6,7]indolizino[1,2-b]quinoline-3,14(4H)-dione] | 11 nM | 14.9 nM | 2.19 nM | significantly superior to that of SN-38 and Dxd | 
14 | CCCSCc1c2c(nc3cc(F)c(Br)cc13)-c1cc3c(c(=O)n1C2)COC(=O)[C@]3(O)CC [STI-G2-06C, (S)-9-bromo-4-ethyl-8-fluoro-4-hydroxy-11-((propylthio)methyl)-1,12-dihydro-14H-pyrano[3′,4′:6,7]indolizino[1,2-b]quinoline-3,14(4H)-dione] | 81.3 nM | 216 nM | 57.8 nM | comparable to that of SN-38 and Dxd | 
15 | CC[C@@]1(O)C(=O)OCc2c1cc1n(c2=O)Cc2c-1nc1cc(F)c(C)cc1c2CNCC1CCCC1 [STI-A2, (S)-4-ethyl-4-hydroxy-8-fluoro-9-methyl-11-(((cyclopentylmethyl)amino)methyl)-1,12-dihydro-14H-pyrano[3′,4′:6,7]indolizino[1,2-b]quinoline-3,14(4H)-dione] | 52.5 nM | 107 nM | 30.8 nM | comparable to that of SN-38 and Dxd | 
16 | CCCCCc1c2c(nc3cc(F)c(NC(=O)CO)cc13)-c1cc3c(c(=O)n1C2)COC(=O)[C@]3(O)CC [STI-G5, (S)—N-(4-ethyl-8-fluoro-4-hydroxy-3,14-dioxo-11-pentyl-3,4,12,14-tetrahydro-1H-pyrano[3′,4′:6,7]indolizino[1,2-b]quinolin-9-yl)-2-hydroxyacetamide] |  |  |  |  | IC50 [4]: 2.22 nM; IC50 [5]: 10.3 nM
17 | CC[C@@]1(O)C(=O)OCc2c1cc1n(c2=O)Cc2c-1nc1cc(F)c(C)cc1c2CCl [STI-A-4, (S)-4-ethyl-4-hydroxy-8-fluoro-9-methyl-11-(chloromethyl)-1,12-dihydro-14H-pyrano[3′,4′:6,7]indolizino[1,2-b]quinoline-3,14(4H)-dione] | 222 nM | 757 nM | 71.8 nM |  | 
18 | CCCCCc1c2c(nc3cc(F)c(N)cc13)-c1cc3c(c(=O)n1C2)COC(=O)[C@]3(O)CC [STI-G1, (S)-4-ethyl-4-hydroxy-8-fluoro-9-amino-11-pentyl-1,12-dihydro-14H-pyrano[3′,4′:6,7]indolizino[1,2-b]quinoline-3,14(4H)-dione] | 11 nM | 9.52 nM | 3.7 nM | significantly superior to that of SN-38 and Dxd | 
19 | CC[C@@]1(O)C(=O)OCc2c1cc1n(c2=O)Cc2c-1nc1cc(F)c(C)cc1c2NC(=O)C(O)C1CC1 (stereo partly drawn) [STI-F, 2-cyclopropyl-N—((S)-4-ethyl-8-fluoro-4-hydroxy-9-methyl-3,14-dioxo-3,4,12,14-tetrahydro-1H-pyrano[3′,4′:6,7]indolizino[1,2-b]quinolin-11-yl)-2-hydroxyacetamide] |  |  | 45.5 nM | comparable to that of SN-38 and Dxd | 
20 | CCc1c2c(nc3ccc(O)cc13)-c1cc3c(c(=O)n1C2)COC(=O)[C@]3(O)CC [SN-38, reference compound] | 60.5 nM | 523 nM | 30.9 nM |  | 
21 | CC[C@@]1(O)C(=O)OCc2c1cc1n(c2=O)Cc2c-1nc1cc(F)c(C)cc1c2NCCCCN [STI-F7, (S)-11-((4-aminobutyl)amino)-4-ethyl-8-fluoro-4-hydroxy-9-methyl-1,12-dihydro-14H-pyrano[3′,4′:6,7]indolizino[1,2-b]quinoline-3,14(4H)-dione] |  |  | 285 nM |  | 
